Consider 5 compounds from patent publication US11555015B2, “Compounds useful in the treatment of autoimmune and inflammatory disorders” (Arena Pharmaceuticals, Inc., priority 2018, dated 2023).

S1P1, sequence (P21453 whole entry, species assumed): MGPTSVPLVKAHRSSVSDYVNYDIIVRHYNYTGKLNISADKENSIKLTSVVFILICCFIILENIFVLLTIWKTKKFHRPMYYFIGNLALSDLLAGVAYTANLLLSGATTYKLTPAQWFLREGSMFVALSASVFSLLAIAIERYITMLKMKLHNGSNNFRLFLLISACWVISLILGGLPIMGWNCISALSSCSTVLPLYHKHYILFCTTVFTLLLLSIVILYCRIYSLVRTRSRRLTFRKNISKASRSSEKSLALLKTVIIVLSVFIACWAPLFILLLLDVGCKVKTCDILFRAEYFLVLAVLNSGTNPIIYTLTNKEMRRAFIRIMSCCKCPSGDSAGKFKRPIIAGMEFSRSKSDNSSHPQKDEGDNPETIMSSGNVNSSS

For the test, the target named is S1P1 (Homo sapiens, UniProt P21453). Nature of the test: Beta arrestin assay (in vitro S1P1 activity). The test is classed as cell-based. The note with it: in vitro beta-arrestin agonist assay. The procedure:
The in vitro S1P1 activity was determined in the beta arrestin assay.
As usually defined, the EC50 is the midpoint of the concentration-response curve. Take `O=C(O)CC1CCc2c1[nH]c1ccc(OCc3ccc(C4CCCC4O)c(C(F)(F)F)c3)cc21` (centres unmarked) [Compound 4-1, 2-(7-((4-(2-Hydroxycyclopentyl)-3-(trifluoromethyl)benzyl)oxy)-1,2,3,4-tetrahydrocyclopenta[b]indol-3-yl)acetic Acid]: the EC50 came to 16.7 nM. With `O=C(O)CC1CCc2c1[nH]c1ccc(OCc3ccc(C4CCC(O)C4)c(C(F)(F)F)c3)cc21` (single isomer, unassigned) [Compound 2-2, 2-(7-((4-(3-Hydroxycyclopentyl)-3-(trifluoromethyl)benzyl)oxy)-1,2,3,4-tetrahydrocyclopenta[b]indol-3-yl)acetic Acid] the figure was 85.6 nM; with `O=C(O)CC1CCc2c1[nH]c1ccc(OCc3ccc(C4CCCC4O)c(C(F)(F)F)c3)cc21` (mixture of isomers) [Compound 4, 2-(7-((4-(2-hydroxycyclopentyl)-3-(trifluoromethyl)benzyl)oxy)-1,2,3,4-tetrahydrocyclopenta[b]indol-3-yl)acetic acid], 3.66 nM. With `O=C(O)CC1CCc2c1[nH]c1ccc(OCc3ccc(C4CCC(O)C4)c(C(F)(F)F)c3)cc21` (single isomer, unassigned) [Compound 2-1, 2-(7-((4-(3-Hydroxycyclopentyl)-3-(trifluoromethyl)benzyl)oxy)-1,2,3,4-tetrahydrocyclopenta[b]indol-3-yl)acetic Acid] the figure was 52.1 nM. As for `O=C(C[C@H]1CCc2c1[nH]c1ccc(OCc3ccc(C4CCCC4)c(C(F)(F)F)c3)cc21)OC1O[C@H](C(=O)O)[C@@H](O)[C@H](O)[C@H]1O` (stereo partly drawn) [Compound 1, (2S,3S,4S,5R)-6-(2-((R)-7-((4-cyclopentyl-3-(trifluoromethyl)benzyl)oxy)-1,2,3,4-tetrahydrocyclopenta[b]indol-3-yl)acetoxy)-3,4,5-trihydroxytetrahydro-2H-pyran-2-carboxylic acid], the figure is 3.9 nM.
